# Test results as given in patent publication US20230192764A1, “NOVEL DOPAMINE PRECURSORS” (Yissum Research Development Company of the Hebrew …, priority 2018, published 2023).
# Values joined by “and” are separate entries in the source; they are usually repeats but may differ in a detail not shown here. Equal entries are not always repeated.
# Legend:
# p38MAPK phosphorylation = assay: AuF-induced phosphorylation of p38MAPK in SH-SY5Y cells, western blot; type: cell-based, human; conditions: summary statement
# Protocol: Cells were treated with 10 µM AuF with or without SD-444. Phosphorylation was determined by western blot analysis. The amount of each band was quantitated by densitometry and plotted with a linear regression program normalized with β catenin (b-cat).
# (§1) In the assay, twenty to thirty micrograms of protein samples were loaded on 10-12% SDS-PAGE gels. The proteins were then transferred electrophoretically to nitrocellulose (Whatman, Germany). The blots were blocked by incubation for 1 h at RT in TBS-T (25 mM Tris-HCl pH 7.4, 0.9% NaCl and 0.02% Tween-20) with 4% Difco skim milk (BD, USA), and incubated over-night at 4° C. with the primary antibody: p-p38^MAPK (Thr180/Tyr182), rabbit mAb; p38, rabbit Ab.
# JNK phosphorylation = assay: AuF-induced phosphorylation of JNK in SH-SY5Y cells, western blot; type: cell-based, human
# Protocol: SH-SY5Y cells were treated with 10 µM AuF with or without SD-444. Phosphorylation was determined by western blot analysis. The amount of each band was quantitated by densitometry and plotted with a linear regression program normalized to total JNK.
# as §1
# as §1, with “1h” for “1 h”, “p-JNK^MAPK, and β-catenin.” for “p-p38^MAPK (Thr180/Tyr182), rabbit mAb; p38, rabbit Ab.”
# ERK1/2 phosphorylation = assay: AuF-induced phosphorylation of ERK1/2 in PC12 cells, western blot; type: cell-based; conditions: 10 µM AuF, normalized to total ERK2, read-out: EC50, lowering of AuF induced activation of ERK1/2
# Protocol: Cells were treated with 10 µM AuF with or without SDA-341. Phosphorylation was determined by western blot analysis (FIG. 6A). The amount of each band was quantitated by densitometry (FIG. 6B) and plotted with a linear regression program normalized to total ERK2 (FIG. 6C).
# The ability of SDA-341 to lower AuF induced activation of ERK1/2 in PC12 cells with the corresponding anti ERK1/2 and ERK2 antibodies was also tested, as shown in FIG. 6. Calculated EC50=80µM.
# [1] = Body weight monitoring in rotenone-treated rats; type: in vivo, Sprague Dawley rats; conditions: for Weight: individual rat, listed as SDA
# Protocol: (§2) 1-SD (Rotenone + SD); 2 - SDA (Rotenone + SDA); 3 - Control (Rotenone); 4 -Naive. The experimental groups were comprised of 6 animals for treated groups (1-3) and 2 animals in naive group (4). Rotenone was administrated 3.0 mg/kg intraperitoneally (IP) once a day in the morning (days 1-9). SD 33 mg/kg and SDA 33 mg/kg were administrated intraperitoneally once a day in the afternoon (days 1-9).
# Animals weight was measured before initiation of treatment (day 0), on days 4,7, 9 during the experiment and on termination day 11. On day 11, animals were sacrificed and brains were harvested for further histopathological analysis.
# (§3) IP administration: Rotenone was administrated to groups 1-3. Rotenone was injected intraperitoneally at a dose 3.0 mg/kg once a day in the morning (days 1-9). SD and SDA was administrated both at a dose of 33 mg/kg and were injected intraperitoneally once a day in the afternoon (days 1-9). Group number 4 was untreated, and remained as a naive group.
# [2] = tested on: Rotenone -induced model of Parkinson's disease (PD) in rats; assay: Rat rearing behavior (cylinder) test, rotenone model; type: in vivo, Sprague Dawley rats; conditions: for Cylinder rise and touch (number of rears in 2 min): individual rat, listed as SDA
# Protocol: as §2
# (§4) Rearing behavior, rotarod and beam walk tests were performed before initiation of treatment (day 0) as well as on days 4, 8 and 10 of the experiment.
# as §3
# Animals were placed in a clear glass cylinder (40 cm high and 20 cm diameter) and number of rears in 2 min was observed. Rear was considered as animals raised their hands above the shoulder and made contact with the wall of cylinder with their forelimb.
# [3] = tested on: Rotenone -induced model of Parkinson's disease (PD) in rats; assay: Rotarod behavior assay, rotenone model; type: in vivo, Sprague Dawley rats; conditions: for R.R (rotarod): individual rat, listed as SDA
# Protocol: as §2, §4, §3
# The test was used to evaluate motor coordination and balance. Apparatus was set to accelerate from 4 to 40 rpm in 300 s, and animals from same cage are placed in separate lanes on rod initially rotating at 4 rpm.
# [4] = tested on: Rotenone -induced model of Parkinson's disease (PD) in rats; assay: Rat beam walk test, rotenone model; type: in vivo, Sprague Dawley rats; conditions: for beam end time: individual rat, listed as SDA
# Protocol: as §2, §4, §3
# Animals were gently placed on 1 m long narrow aluminum beam facing one of the ends and allowed to walk to the end of the beam.
# [5] = average n=6, day 0 (before treatment)
# [6] = day 0 (before treatment), rotenone 3 mg/kg + compound 33 mg/kg IP
# [7] = rats, rotenone 3.0 mg/kg IP + compound 33 mg/kg IP, days 1-9
structure (smiles),measurement,setting,value
"CC(=O)NC(CS)C(=O)NC(Cc1cccc(O)c1O)C(N)=O (centres unmarked) [SDA-341, Acetyle-Cys-2,3 dihydroxyphenylalanine-amide]",p38 phosphorylation (AuF-triggered),p38MAPK phosphorylation,inhibit
same,EC50,"JNK phosphorylation; 10 µM AuF, western blot densitometry, read-out: EC50 in reduction of JNK activation",100 µM
same,JNK phosphorylation (AuF-triggered),JNK phosphorylation; summary statement,inhibit
same,EC50,ERK1/2 phosphorylation,80 µM
same,"Weight, group average",[1]; [5],304.33 gr
same,"Weight, group average","[1]; average n=6, day 4",294.17 gr
same,"Weight, group average","[1]; average n=6, day 7",284.33 gr
same,"Weight, group average","[1]; average n=6, day 9",275.50 gr
same,"Weight, group average","[1]; average n=6, day 11",271.33 gr
same,Weight,[1]; [6],292 gr and 307 gr (2×) and 305 gr and 315 gr and 300 gr
same,Weight,"[1]; day 4, rotenone 3 mg/kg + compound 33 mg/kg IP",284 gr and 293 gr and 299 gr (2×) and 294 gr and 296 gr
same,Weight,"[1]; day 7, rotenone 3 mg/kg + compound 33 mg/kg IP",274 gr and 283 gr (2×) and 287 gr and 288 gr and 291 gr
same,Weight,"[1]; day 9, rotenone 3 mg/kg + compound 33 mg/kg IP",275 gr and 272 gr and 267 gr and 274 gr and 281 gr and 284 gr
same,Weight,"[1]; day 11, rotenone 3 mg/kg + compound 33 mg/kg IP",272 gr and 261 gr and 269 gr and 266 gr and 283 gr and 277 gr
same,"Cylinder rise and touch, group average",[2]; [5],12.83
same,"Cylinder rise and touch, group average","[2]; average n=6, day 4",12.67
same,"Cylinder rise and touch, group average","[2]; average n=6, day 8",14.83
same,"Cylinder rise and touch, group average","[2]; average n=6, day 10",12.50
same,Cylinder rise and touch (number of rears in 2 min),[2]; [6],18 (2×) and 9 and 12 (2×) and 8
same,Cylinder rise and touch (number of rears in 2 min),[2]; day 4,14 (2×) and 12 and 11 and 15 and 10
same,Cylinder rise and touch (number of rears in 2 min),[2]; day 8,15 and 19 (2×) and 8 and 12 and 16
same,Cylinder rise and touch (number of rears in 2 min),[2]; day 10,11 and 14 (2×) and 9 and 10 and 17
same,"Cylinder test, maintaining locomotor activity in Rotenone-treated rats",[2]; [7],very effective
same,"R.R (rotarod), group average",[3]; [5],285.17 s
same,"R.R (rotarod), group average","[3]; average n=6, day 4",286.33 s
same,"R.R (rotarod), group average","[3]; average n=6, day 8",266.33 s
same,"R.R (rotarod), group average","[3]; average n=6, day 10",227.00 s
same,R.R (rotarod),[3]; [6],278 sec and 300 sec (2×) and 269 sec and 290 sec
same,R.R (rotarod),[3]; day 4,298 sec and 274 sec and 263 sec and 300 sec (2×) and 283 sec
same,R.R (rotarod),[3]; day 8,281 s and 249 s and 234 s and 277 s and 268 s and 289 s
same,R.R (rotarod),[3]; day 10,270 s and 195 s and 123 s and 260 s and 243 s and 271 s
same,"rotarod test, motor dysregulation mediated by rotenone",[3]; [7],significantly reversed
same,"beam end time, group average",[4]; [5],9.50 s
same,"beam end time, group average","[4]; average n=6, day 4",17.50 s
same,"beam end time, group average","[4]; average n=6, day 8",25.67 s
same,"beam end time, group average","[4]; average n=6, day 10",20.33 s
same,beam end time,[4]; [6],7 s and 3 s and 10 s and 8 s and 12 s and 17 s
same,beam end time,[4]; day 4,12 s and 32 s and 14 s and 21 s and 10 s and 16 s
same,beam end time,[4]; day 8,16 s and 23 s and 52 s and 18 s and 19 s and 26 s
same,beam end time,[4]; day 10,22 s and 17 s and 34 s and 10 s and 21 s and 18 s
same,"Walk-beam test, reversal of rotenone induced imbalance",[4]; [7],very effective
